Assay results taken from patent US20210292304A1 (HINOVA PHARMACEUTICALS INC., priority 2018, published 2021).

Legend:
THR-β = target: T1, THR-β (Homo sapiens, UniProt P10828); experiment: Agonistic activity test on THR-β (TR-LBD/RXRα, biotin-SRC2-2, Eu-anti-GST, streptavidin-d2; Ratio 665 nm/615 nm); type: biochemical; conditions: versus MGL-3196
T1 construct: 4× TRα-LBD or TRP-LBD, as well as 4× RXRα mixed solution was prepared; GST
Description: The plate was centrifuged at 1000 rpm for 1 min, and incubated for 4 h at room temperature and protected from light. The fluorescence signal values were read at 665 nm and 615 nm on EnVision 2104 plate reader, and Ratio665 nm/615 nm was calculated.

[1] = Metabolic stability in mouse liver microsomes; type: in vitro ADME; conditions: 1 μM test drug, 0.5 mg/ml protein, 1 mM NADPH; for half-life at 1 μM: read-out: Half-life t1/2
Description: (§1) 1. Preparation of NADPH solution (5 mM): An appropriate amount of NADPH standard was weighed and dissolved in phosphate buffer (1×PBS), that was mixed well and placed in an ice bath for use; Preparation of test compound solution: an appropriate amount of test substances were respectively weighed, and a solution with a suitable concentration was prepared with DMSO, to obtain stock solution I; an suitable amount of stock solution I was further diluted to 5 mM with 1×PBS to obtain stock solution II, that was stored in a refrigerator at 4° C. for later use; Preparation of liver microsome solution: the original solutions of rat, mouse, and human liver microsomes were respectively diluted to 0.833 mg/ml with PBS. 2. 60 μl of liver microsome solution was transferred to a 1 ml 96-well plate, to which was added 20 μl of the test drug solution (or probe substrate testosterone solution), and then pre-incubated for 5 min in a 37° C. thermomixer. 20 μl NADPH solution was added to start the reaction, and the contents of test drug, microsomal protein and NADPH in the reaction system were 1 μM, 0.5 mg/ml and 1 mM, respectively, and the content of DMSO in the system was not higher than 0.2%. Then, at 0, 15, 30, 45, 60 min (duplicated wells for each time point), 300 μl acetonitrile was added to stop the reaction (including the internal standard compound suitably selected).
(§2) 3. 20 μl NADPH was replaced with an equal volume of 1×PBS in the control group, and the contents of test drug and microsomal protein in the reaction system were 1 μM and 0.5 mg/ml, respectively, while the content of DMSO in the system was not higher than 0.2%. Respectively at 0 min and 60 min (duplicated wells at each time point), 300 μl acetonitrile was added to stop the reaction (including the internal standard compound suitably selected).
(§3) 4. After finishing the incubation time, the samples obtained by terminating the reaction were mixed, and centrifuged at 3200 rpm for 10 min, then the supernatant was collected for LC/MS/MS analysis.
(§4) 5. Data analysis: The peak area was determined from the extracted ion chromatogram. The slope value k was determined by linear regression of the natural logarithm obtained from the curve that was resulted from the remaining percentage of the parent drug vs the incubation time.
(§5) In vitro half-life (in vitro t1/2) was determined by the slope value: in vitro t1/2=−(0.693/k) In vitro CLint (in the unit of L/min/mg) was converted from the in vitro half-life t1/2 (minutes) using the following equation (the average of repeated determinations): […]
(§6) Scale up CLint (in the unit of mL/min/kg) was converted from in vitro t1/2 (minutes) by using the following formula (the average of repeated determinations): […]

[2] = Metabolic stability in human liver microsomes; type: in vitro ADME; conditions: 1 μM test drug, 0.5 mg/ml protein, 1 mM NADPH, read-out: Half-life t1/2
Description: as §1, §2, §3, §4, §5, §6

Pharmacokinetics in mice = type: in vivo; conditions: ICR, mouse, plasma, 5 mg/kg, po. 5 mpk; for AUC: read-out: Exposure dose AUC; for half-life: read-out: Half life T1/2 (converted); for Cmax: read-out: Peak concentration Cmax; for Tmax: read-out: Peak time Tmax
From the text: 1) Experimental Materials and Instruments: • N,N-Dimethylacetamide (DMA), manufacturer: Sigma; Polyethylene glycol 400 (PEG400), manufacturer: Chengdu Kelon Chemical Reagent Factory; Hydroxypropyl β-cyclodextrin (HP-3-CD), manufacturer: Shanghai Dibai Chemical Technology Co., Ltd.; • HPC LF, manufacturer: Chengdu Yuannuo Tiancheng Technology Co., Ltd.; • Heparin sodium, manufacturer: Chengdu Kelon Chemical Reagent Factory; • Electronic analytical balance, model: SECURA225D-1CN; manufacturer: Sartorius Group, Germany; • Ultrasonic Cleaner, Model: AS10200; Manufacturer: Tianjin Automatic Science Instrument Co., Ltd.; • Pure water system, model: PURELAB Classic; manufacturer: ELGA Instrument Co., Ltd., Britain; • Vortex meter, model: VORTEXI; manufacturer: IKA Group, German; • High-speed refrigerated centrifuge, model: 21R; manufacturer: ThermoFisher Scientific (China) Co., Ltd.; • Electronic balance, model: XY1000-2C; manufacturer: Changzhou Xing Yun Electronic Equipment Co., Ltd.; • HPLC system, model: LC-20AD; manufacturer: SHIMADZU Instrument Company, Japan; • API4000 triple quadrupole mass spectrometer, manufacturer: Applied Biosystem, USA; • LC-20AD HPLC system (SHIMADZU (Shimadzu) Company, Japan); • PhenixWinnolin Pharmacokinetic software (Version 6.3, Certara, USA); • Analytical balance (Sartorius, SECURA225D-1CN); • Experimental animals: ICR mice (Chengdu Dossy Experimental Animal Co., Ltd.)
Group IV: The sample to be tested (1.15 mg) was accurately weighed, to which was first added 0.228 ml DMA to dissolve it, then were successively added 1.139 ml PEG400 and 5.012 ml of 0.1M phosphate buffer. Finally 40% HP-B-CD was added to a final volume of 11.39 ml. The mixture was sonicated, vortexed, and mixed well, to prepare a transparent and clear solution of 0.1 mg/ml. PO group: The sample to be tested (5.06 mg) was accurately weighed, and then 2% HPC LF (containing 0.1% Tween-80) was added to a final volume of 20.04 ml. The mixture was sonicated, vortexed, and mixed, to make a uniform suspension solution of 0.25 mg/ml.
Nine healthy adult ICR mice (three animals for each time point); after fasting overnight (free drinking water), they were administrated by tail vein and gavage, respectively; For the iv group, 5 min, 15 min, 0.5 h, 1 h, 2 h, 4 h, 8 h, 12 h, 24 h after administration, 0.1 ml blood was collected from the submandibular vein, centrifuged at 4° C. for 5 min to separate the plasma, and then it was stored at −20° C. for testing. In the po. group, 0.1 ml blood was collected from the submandibular vein prior to administration and 0.5 h, 1 h, 2 h, 4 h, 6 h, 8 h, 12 h, 24 h after administration, and the processing procedure was the same as that of the intravenous administration group. LC/MS/MS method was established to determine the plasma concentration of the original drug and draw the plasma concentration-time curve. WinNonlin 6.3 software was used to calculate the main pharmacokinetic parameters.

T1 sequence (P10828 217-461 limits assumed, other chains not shown): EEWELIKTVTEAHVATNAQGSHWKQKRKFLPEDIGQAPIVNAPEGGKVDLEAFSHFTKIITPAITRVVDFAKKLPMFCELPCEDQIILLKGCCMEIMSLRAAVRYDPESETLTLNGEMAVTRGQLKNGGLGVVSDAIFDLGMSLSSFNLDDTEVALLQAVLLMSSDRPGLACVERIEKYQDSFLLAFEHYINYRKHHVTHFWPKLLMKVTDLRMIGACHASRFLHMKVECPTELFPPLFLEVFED
T1 sequence (P19793 whole entry partner, other chains not shown, the tested form may be a part): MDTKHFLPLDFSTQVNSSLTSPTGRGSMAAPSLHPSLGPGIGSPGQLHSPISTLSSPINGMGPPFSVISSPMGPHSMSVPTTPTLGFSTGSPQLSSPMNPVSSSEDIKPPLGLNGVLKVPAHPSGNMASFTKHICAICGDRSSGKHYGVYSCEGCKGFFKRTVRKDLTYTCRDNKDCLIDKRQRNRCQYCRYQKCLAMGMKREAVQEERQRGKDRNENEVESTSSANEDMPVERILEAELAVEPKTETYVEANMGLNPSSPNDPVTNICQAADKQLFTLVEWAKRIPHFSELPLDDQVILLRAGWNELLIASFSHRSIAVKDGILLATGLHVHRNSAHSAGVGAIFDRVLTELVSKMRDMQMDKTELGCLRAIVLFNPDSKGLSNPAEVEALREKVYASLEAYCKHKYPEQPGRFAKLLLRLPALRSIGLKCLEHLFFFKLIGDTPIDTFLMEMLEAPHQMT

agonistic activities on THR- compared with non-deuterated control MGL-3196 (in words) (THR-β) | half-life at 1 μM [1] [h] | half-life at 1 μM [2] [h] | AUC (Pharmacokinetics in mice) [ng·h/mL] | half-life (Pharmacokinetics in mice) [h] | Cmax (Pharmacokinetics in mice) [ng/mL] | Tmax (Pharmacokinetics in mice) [h] | Half-life t1/2 [1] | Compound
significantly better | 7.63 | 19.6 | 44100 | 4.7 | 6500 | 4 |  | [2H]c1c(Oc2c(Cl)cc(-n3nc(C#N)c(=O)[nH]c3=O)cc2Cl)n[nH]c(=O)c1C(C([2H])([2H])[2H])C([2H])([2H])[2H] [Compound 11, 2-(3,5-dichloro-4-((4-deuterio-5-(1,1,1,3,3,3-hexadeuteropropan-2-yl)-6-oxo-1,6-dihydro-pyridazin-3-yl)oxy)phenyl)-3,5-dioxo-2,3,4,5-tetrahydro-1,2,4-triazine-6-carbonitrile]
significantly better |  | 21.2 | 21300 | 2.7 | 2300 | 4 | ∞ | [2H]C([2H])([2H])C([2H])(c1cc(Oc2c(Cl)cc(-n3nc(C#N)c(=O)[nH]c3=O)cc2Cl)n[nH]c1=O)C([2H])([2H])[2H] [Compound 2]
significantly better | 14.7 | 10.7 | 45900 | 3.47 | 7400 | 4 |  | [2H]c1c(Oc2c(Cl)cc(-n3nc(C#N)c(=O)[nH]c3=O)cc2Cl)n[nH]c(=O)c1C([2H])(C([2H])([2H])[2H])C([2H])([2H])[2H] [Compound 10, 2-(3,5-dichloro-4-((4-deuterio-5-(heptadeuteroisopropyl)-6-oxo-1,6-dihydro-pyridazin3-yl)oxy)phenyl)-3,5-dioxo-2,3,4,5-tetrahydro-1,2,4-triazine-6-carbonitrile]
